Results as given in patent US8455544B2, “Synthetic triterpenoids and methods of use in the treatment of disease” (Reata Pharmaecuticals, Inc., priority 2008, dated 2013).

System: patients with cancer
Experiment: Phase I clinical trial in patients with cancer (solid tumor study): serum creatinine, eGFR
Type: in vivo, human
Protocol: FIGS. 4A-B—RTA 402 reduces serum creatinine levels and increases the estimated glomerular filtration rate (eGFR) in human patients with cancer. FIG. 4A: Serum creatinine was measured in RTA 402-treated patients enrolled in a Phase I clinical trial for the treatment of cancer. The patients were administered RTA 402 (p.o.) once daily for 21 days at doses ranging from 5 to 1,300 mg/day. The percent reduction of serum creatinine relative to baseline levels is shown for the indicated study days. Significant decreases in serum creatinine levels were observed on Days 15 and 21. FIG. 4B: The estimated glomerular filtration rate (eGFR) was calculated for the patients in FIG. 4A. […] All patients: n=24; patients with baseline ≧1.5: n=5. For FIGS. 4A and 4B, * indicates p≦0.04; † indicates p=0.01, and ‡ indicates p≦0.01. Note: in FIG. 4A, “% Reduction from Baseline” on the vertical axis indicates percent change. For example, a reading of −15 on this axis indicates a 15% reduction in serum creatinine.
FIG. 5—RTA 402 increases GFR in human patients with cancer. Estimated glomerular filtration rate (eGFR) was measured in RTA 402-treated patients enrolled in a multi-month clinical trial for the treatment of cancer. All patients (n=11) dosed through six months were included in the analysis. The dosing information for these patients is provided in Example 5, below.
Serum creatinine has also been measured in patients with cancer enrolled in a Phase I clinical trial of RTA 402. These patients received RTA 402 once daily at doses from 5 to 1,300 mg/day for a total of twenty-one days every 28 days. A reduction in serum creatinine by greater than 15% was observed as early as eight days following treatment initiation and persisted through the end of the cycle (FIG. 4A). This reduction was maintained in those patients that received six or more cycles of treatment with RTA 402. […] In these patients, serum creatinine levels decreased progressively throughout the cycle such that the Day 21 levels were approximately 25% lower than baseline levels (FIG. 4A).
Some of these patients were enrolled in the Phase I study, whereas others were enrolled in a study of RTA 402 (in combination with gemcitabine) in patients with pancreatic cancer.

## COC(=O)[C@]12CCC(C)(C)C[C@H]1[C@H]1C(=O)C=C3[C@@]4(C)C=C(C#N)C(=O)C(C)(C)[C@@H]4CC[C@@]3(C)[C@]1(C)CC2 [RTA 402, methyl-2-cyano-3,12-dioxooleana-1,9-dien-28-oic acid]
5 to 1,300 mg/day once daily for 21 days every 28 days, as early as eight days following treatment initiation
  Reduction in serum creatinine: greater than 15%
Day 21, subset with baseline serum creatinine of at least 1.5 mg/dl
  Serum creatinine lower than baseline levels: approximately 25%
Phase I patients, 21 days
  Estimated glomerular filtration rate (eGFR): significantly improved
Pt 402, dose 5 mg, cycle 1 (28 days each), BL 109.7
  eGFR: 109.7
Pt 402, dose 5 mg, cycle 2, BL 109.7
  eGFR: 109.7
Pt 402, dose 5 mg, cycle 3, BL 109.7
  eGFR: 95.7
Pt 402, dose 5 mg, cycle 4, BL 109.7
  eGFR: 95.7
Pt 402, dose 5 mg, cycle 5, BL 109.7
  eGFR: 109.7
Pt 402, dose 5 mg, cycle 6, BL 109.7
  eGFR: 95.7
Pt 406, dose 80 mg, cycle 1, BL 94.2
  eGFR: 125.9
Pt 406, dose 80 mg, cycle 2, BL 94.2
  eGFR: 107.9
Pt 406, dose 80 mg, cycle 3, BL 94.2
  eGFR: 107.9
Pt 406, dose 80 mg, cycle 4, BL 94.2
  eGFR: 125.9
Pt 406, dose 80 mg, cycle 5, BL 94.2
  eGFR: 107.9
Pt 406, dose 80 mg, cycle 6, BL 94.2
  eGFR: 125.9
Pt 408, dose 150 mg, cycle 1, BL 73.2
  eGFR: 82.1
Pt 408, dose 150 mg, cycle 2, BL 73.2
  eGFR: 77.4
Pt 408, dose 150 mg, cycle 3, BL 73.2
  eGFR: 69.4
Pt 408, dose 150 mg, cycle 4, BL 73.2
  eGFR: 77.4
Pt 408, dose 150 mg, cycle 5, BL 73.2
  eGFR: 77.4
Pt 408, dose 150 mg, cycle 6, BL 73.2
  eGFR: 87.4
Pt 409, dose 150/300 mg, cycle 1, BL 48.4
  eGFR: 62.6
Pt 409, dose 150/300 mg, cycle 2, BL 48.4
  eGFR: 62.6
Pt 409, dose 150/300 mg, cycle 3, BL 48.4
  eGFR: 62.6
Pt 409, dose 150/300 mg, cycle 4, BL 48.4
  eGFR: 57.0
Pt 409, dose 150/300 mg, cycle 5, BL 48.4
  eGFR: 69.2
Pt 409, dose 150/300 mg, cycle 6, BL 48.4
  eGFR: 69.2
Pt 410, dose 300/600 mg, cycle 1, BL 49.9
  eGFR: 69.6
Pt 410, dose 300/600 mg, cycle 2, BL 49.9
  eGFR: 63.4
Pt 410, dose 300/600 mg, cycle 3, BL 49.9
  eGFR: 63.4
Pt 410, dose 300/600 mg, cycle 4, BL 49.9
  eGFR: 69.6
Pt 410, dose 300/600 mg, cycle 5, BL 49.9
  eGFR: 63.4
Pt 410, dose 300/600 mg, cycle 6, BL 49.9
  eGFR: 69.6
Pt 421, dose 1300/900 mg, cycle 1, BL 52.5
  eGFR: 58.6
Pt 421, dose 1300/900 mg, cycle 2, BL 52.5
  eGFR: 66.2
Pt 421, dose 1300/900 mg, cycle 3, BL 52.5
  eGFR: 75.8
Pt 421, dose 1300/900 mg, cycle 5, BL 52.5
  eGFR: 88.4
Pt 421, dose 1300/900 mg, cycle 6, BL 52.5
  eGFR: 75.8
Pt 427, dose 1300 mg, cycle 1, BL 70.1
  eGFR: 101.3
Pt 427, dose 1300 mg, cycle 2, BL 70.1
  eGFR: 78.3
Pt 427, dose 1300 mg, cycle 3, BL 70.1
  eGFR: 88.4
Pt 427, dose 1300 mg, cycle 4, BL 70.1
  eGFR: 101.3
Pt 427, dose 1300 mg, cycle 5, BL 70.1
  eGFR: 101.3
Pt 427, dose 1300 mg, cycle 6, BL 70.1
  eGFR: 101.3
All patients, n=45, Day 21
  % Serum Creatinine Decrease from Baseline: −18.3%
All patients, n=45, drug for at least 3 weeks
  % of Patients with Decrease on Day 21 (serum creatinine): 87%
sub-set with elevated baseline serum creatinine levels, n=8
  % of Patients with Decrease on Day 21 (serum creatinine): 100%
sub-set with elevated baseline serum creatinine levels, n=8, Day 21
  % Serum Creatinine Decrease from Baseline: −24.5%
